{"source": "patent US10596150B2", "about": "“Antifungal agents” (F2G LIMITED, priority 2014, dated 2020)", "format_in_all_cases": "cell-based", "key": {"A. fumigatus 210": {"system": "A. fumigatus 210", "test": "Minimum Inhibitory Concentration (MIC), RPMI medium", "details": "Aspergillus fumigatus, >80% growth inhibition", "procedure,_shortened": "(§1)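 Fungal spores at 1-2×10^4 cfu/mL are exposed to doubling drug dilutions (50-0.05 mg/L) in RPMI with 0.135 M MOPS, then incubated 24-48 h at 35° C. Optical density defines the MIC as >80% growth inhibition.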"}, "A. fumigatus": {"system": "A. fumigatus", "test": "Minimum Inhibitory Concentration (MIC), RPMI medium", "details": "Aspergillus fumigatus, >80% growth inhibition", "procedure,_shortened": "as §1"}, "A. terreus 49": {"system": "A. terreus 49", "test": "Minimum Inhibitory Concentration (MIC), RPMI medium", "details": "Aspergillus terreus, >80% growth inhibition", "procedure,_shortened": "as §1"}, "A. terreus": {"system": "A. terreus", "test": "Minimum Inhibitory Concentration (MIC), RPMI medium", "details": "Aspergillus terreus, >80% growth inhibition", "procedure,_shortened": "as §1"}, "[1]": {"system": "Scedosporium apiospermum 4883", "test": "Minimum Inhibitory Concentration (MIC), RPMI medium", "procedure,_shortened": "as §1"}, "[2]": {"system": "Scedosporium apiospermum 7935", "test": "Minimum Inhibitory Concentration (MIC), RPMI medium", "procedure,_shortened": "as §1"}, "[3]": {"system": "Scedosporium apiospermum 8353", "test": "Minimum Inhibitory Concentration (MIC), RPMI medium", "procedure,_shortened": "as §1"}, "[4]": {"system": "Scedosporium prolifican 1121", "test": "Minimum Inhibitory Concentration (MIC), RPMI medium", "procedure,_shortened": "as §1"}, "[5]": {"system": "Scedosporium prolifican 15849", "test": "Minimum Inhibitory Concentration (MIC), RPMI medium", "procedure,_shortened": "as §1"}, "[6]": {"system": "Scedosporium prolifican 201", "test": "Minimum Inhibitory Concentration (MIC), RPMI medium", "procedure,_shortened": "as §1"}, "[7]": {"system": "Scedosporium prolifican 4883", "test": "Minimum Inhibitory Concentration (MIC), RPMI medium", "procedure,_shortened": "as §1"}, "[8]": {"system": "Scedosporium prolificans 206", "test": "Minimum Inhibitory Concentration (MIC), RPMI medium", "details": "Lomentospora prolificans", "procedure,_shortened": "as §1"}, "S. aurantiacum": {"system": "S. aurantiacum", "test": "Analogous MIC experiments", "procedure": "(§2) Between 1 and 5 mgs of the compound were accurately weighed out into a sterile Eppendorf tube. The compound was dissolved in DMSO to give a solution containing 5 mg/mL. Tubes were stored at −20° C. until required.\n(§3) On the day of testing thawed solutions were vortex mixed to ensure homogeneity. 30 μL of solution was removed and added to 570 μL of sterile water in a separate sterile Eppendorf. The thoroughly mixed solution was used to prepare a series of doubling dilutions in water, in a deep well plate. Thirteen replicate plates were prepared using a Minitrak by aspirating 20 μL from each well into eleven clear polystyrene 96 well plates.\n(§4) Spores of Aspergillus and Scedosporium were harvested from cultures grown on Sabarauds agar for 5 days, and resuspended in PBS/Tween 80 to approx 1×10^7 cfu/mL. Each organism suspension was diluted in RPMI medium, containing 2% glucose and 0.135 M MOPS buffer (pH 7.0) to 0.5-2×10^4 cfu/mL. 80 μL of an organism suspension was added to each well of the plate containing drug dilutions.\n(§5) This produced MIC plates with a drug range 50-0.05 mg/L and organism inocula of 1-2×10^4 cfu/mL. All plates were incubated for 24-48 h at 35° C. Growth was assessed by monitoring the optical density at 485 nm for each well. The MIC of a compound is the lowest drug concentration that inhibits growth of an organism by >80% compared with a drug free control."}, "S. boydii": {"system": "S. boydii", "test": "Analogous MIC experiments", "procedure": "as §2, §3, §4, §5"}, "S. dehoogii": {"system": "S. dehoogii", "test": "Analogous MIC experiments", "procedure": "as §2, §3, §4, §5"}}, "data": [{"smiles": "Cc1cc(-c2ccccc2)c(C(=O)C(=O)Nc2ccc(N3CCN(c4ncc(F)cn4)CC3)cc2)n1C", "note": "[Example 1, 2-(1,5-dimethyl-3-phenyl-1H-pyrrol-2-yl)-N-(4-(4-(5-fluoropyrimidin-2-yl)piperazin-1-yl)phenyl)-2-oxoacetamide]", "values": [{"measurement": "MIC", "setting": "A. fumigatus 210", "value": "0.01 to 0.02", "unit": "µg/mL"}, {"measurement": "MIC", "setting": "A. fumigatus", "value": "0.01 to 0.02", "unit": "µg/mL"}, {"measurement": "MIC", "setting": "A. terreus 49", "value": "≤ 0.005", "unit": "µg/mL"}, {"measurement": "MIC", "setting": "A. terreus", "value": "≤ 0.005", "unit": "µg/mL"}, {"measurement": "MIC", "setting": "[1]", "value": "0.01 to 0.02", "unit": "µg/mL"}, {"measurement": "MIC", "setting": "[2]", "value": "0.01 to 0.02", "unit": "µg/mL"}, {"measurement": "MIC", "setting": "[3]", "value": "0.005 to 0.01", "unit": "µg/mL"}, {"measurement": "MIC", "setting": "[4]", "value": "≤ 0.005", "unit": "µg/mL"}, {"measurement": "MIC", "setting": "[5]", "value": "0.04 to 0.06", "unit": "µg/mL"}, {"measurement": "MIC", "setting": "[6]", "value": "0.02 to 0.04", "unit": "µg/mL"}, {"measurement": "MIC", "setting": "[7]", "value": "0.01 to 0.02", "unit": "µg/mL"}, {"measurement": "MIC", "setting": "[8]", "value": "0.02 to 0.04", "unit": "µg/mL"}, {"measurement": "antifungal activity against S. aurantiacum", "setting": "S. aurantiacum", "value": "good antifungal activity"}, {"measurement": "antifungal activity against S. boydii", "setting": "S. boydii", "value": "good antifungal activity"}, {"measurement": "antifungal activity against S. dehoogii", "setting": "S. dehoogii", "value": "good antifungal activity"}]}]}
